{
  "source": "paper PMC8800111",
  "about": "(The Journal of Biological Chemistry, 2021)",
  "type_in_all_cases": "cell-based",
  "key": {"[1]": {"target": "proteins of U3A human fibrosarcoma cells (4462 proteins detected) (Homo sapiens, UniProt O60462)", "conditions": "protein NRP2; soluble abundance after heat, U3A cells"}, "[2]": {"target": "proteins of U3A human fibrosarcoma cells (4462 proteins detected) (Homo sapiens, UniProt O76061)", "sequence (O76061 25-302)": "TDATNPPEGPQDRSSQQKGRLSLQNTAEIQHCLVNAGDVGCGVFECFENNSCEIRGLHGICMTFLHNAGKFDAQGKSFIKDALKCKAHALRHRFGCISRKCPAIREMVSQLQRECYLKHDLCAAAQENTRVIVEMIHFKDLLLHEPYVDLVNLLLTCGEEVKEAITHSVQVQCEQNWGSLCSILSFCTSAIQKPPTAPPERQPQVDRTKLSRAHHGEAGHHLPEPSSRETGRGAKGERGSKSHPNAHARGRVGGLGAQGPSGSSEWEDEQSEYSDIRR", "conditions": "protein STC2; U3A cells"}, "[3]": {"target": "proteins of U3A human fibrosarcoma cells (4462 proteins detected) (Homo sapiens, UniProt O94880)", "sequence (O94880 whole entry)": "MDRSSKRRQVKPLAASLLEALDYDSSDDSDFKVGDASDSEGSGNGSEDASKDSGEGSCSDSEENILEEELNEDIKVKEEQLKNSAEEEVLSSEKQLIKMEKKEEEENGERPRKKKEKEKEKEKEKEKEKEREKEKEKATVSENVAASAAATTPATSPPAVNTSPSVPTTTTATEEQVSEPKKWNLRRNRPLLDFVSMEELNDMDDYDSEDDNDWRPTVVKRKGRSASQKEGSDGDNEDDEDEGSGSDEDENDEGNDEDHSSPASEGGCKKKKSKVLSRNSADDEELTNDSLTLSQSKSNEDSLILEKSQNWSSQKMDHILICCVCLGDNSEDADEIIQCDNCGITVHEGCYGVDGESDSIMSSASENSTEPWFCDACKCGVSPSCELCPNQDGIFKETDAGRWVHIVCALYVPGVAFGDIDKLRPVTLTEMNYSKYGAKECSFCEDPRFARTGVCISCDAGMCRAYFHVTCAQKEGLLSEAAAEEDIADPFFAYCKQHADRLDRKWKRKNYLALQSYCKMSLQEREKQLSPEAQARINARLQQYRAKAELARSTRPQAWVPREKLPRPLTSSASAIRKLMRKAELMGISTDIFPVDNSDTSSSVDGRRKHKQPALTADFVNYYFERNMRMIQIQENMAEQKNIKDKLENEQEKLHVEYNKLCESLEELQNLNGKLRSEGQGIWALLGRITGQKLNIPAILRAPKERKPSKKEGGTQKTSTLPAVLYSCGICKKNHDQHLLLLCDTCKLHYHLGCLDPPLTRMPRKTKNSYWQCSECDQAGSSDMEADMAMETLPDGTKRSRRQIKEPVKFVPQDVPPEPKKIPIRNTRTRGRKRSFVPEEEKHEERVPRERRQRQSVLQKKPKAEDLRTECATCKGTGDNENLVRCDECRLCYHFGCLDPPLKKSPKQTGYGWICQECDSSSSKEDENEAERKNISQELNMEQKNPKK", "conditions": "protein PHF14; U3A, 10 μM, 2 h"}, "[4]": {"target": "proteins of U3A human fibrosarcoma cells (4462 proteins detected) (Homo sapiens, UniProt O95801)", "sequence (O95801 whole entry)": "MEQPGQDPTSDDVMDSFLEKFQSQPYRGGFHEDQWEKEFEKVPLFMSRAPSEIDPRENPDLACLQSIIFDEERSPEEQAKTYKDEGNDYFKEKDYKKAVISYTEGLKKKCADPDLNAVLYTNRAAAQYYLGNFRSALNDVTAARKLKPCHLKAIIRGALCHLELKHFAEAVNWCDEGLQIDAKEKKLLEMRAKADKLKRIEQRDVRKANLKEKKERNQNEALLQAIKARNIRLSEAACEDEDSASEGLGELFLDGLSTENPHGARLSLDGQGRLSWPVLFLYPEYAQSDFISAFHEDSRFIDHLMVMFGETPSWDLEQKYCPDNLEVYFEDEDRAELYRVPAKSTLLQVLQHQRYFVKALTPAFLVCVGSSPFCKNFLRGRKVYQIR", "conditions": "protein TTC4; soluble abundance after heat, U3A cells"}, "[5]": {"target": "proteins of U3A human fibrosarcoma cells (4462 proteins detected) (Homo sapiens, UniProt P10809)", "conditions": "protein HSPD1; U3A, 10 μM, 2 h"}, "[6]": {"target": "proteins of U3A human fibrosarcoma cells (4462 proteins detected) (Homo sapiens, UniProt P13489)", "conditions": "protein RNH1; U3A cells"}, "[7]": {"target": "proteins of U3A human fibrosarcoma cells (4462 proteins detected) (Homo sapiens, UniProt P26583)", "conditions": "protein HMGB2; U3A, 10 μM, 2 h"}, "[8]": {"target": "proteins of U3A human fibrosarcoma cells (4462 proteins detected) (Homo sapiens, UniProt P42766)", "conditions": "protein RPL35; U3A cells"}, "[9]": {"target": "proteins of U3A human fibrosarcoma cells (4462 proteins detected) (Homo sapiens, UniProt P46087)", "conditions": "protein NOP2; U3A cells"}, "[10]": {"target": "proteins of U3A human fibrosarcoma cells (4462 proteins detected) (Homo sapiens, UniProt P62701)", "conditions": "protein RPS4X; soluble abundance after heat, U3A cells"}, "[11]": {"target": "proteins of U3A human fibrosarcoma cells (4462 proteins detected) (Homo sapiens, UniProt Q12874)", "conditions": "protein SF3A3; U3A cells"}, "[12]": {"target": "proteins of U3A human fibrosarcoma cells (4462 proteins detected) (Homo sapiens, UniProt Q13620)", "conditions": "protein CUL4B; U3A cells"}, "[13]": {"target": "proteins of U3A human fibrosarcoma cells (4462 proteins detected) (Homo sapiens, UniProt Q14847)", "conditions": "protein LASP1, U3A cells"}, "[14]": {"target": "proteins of U3A human fibrosarcoma cells (4462 proteins detected) (Homo sapiens, UniProt Q6GYQ0)", "sequence (Q6GYQ0 whole entry)": "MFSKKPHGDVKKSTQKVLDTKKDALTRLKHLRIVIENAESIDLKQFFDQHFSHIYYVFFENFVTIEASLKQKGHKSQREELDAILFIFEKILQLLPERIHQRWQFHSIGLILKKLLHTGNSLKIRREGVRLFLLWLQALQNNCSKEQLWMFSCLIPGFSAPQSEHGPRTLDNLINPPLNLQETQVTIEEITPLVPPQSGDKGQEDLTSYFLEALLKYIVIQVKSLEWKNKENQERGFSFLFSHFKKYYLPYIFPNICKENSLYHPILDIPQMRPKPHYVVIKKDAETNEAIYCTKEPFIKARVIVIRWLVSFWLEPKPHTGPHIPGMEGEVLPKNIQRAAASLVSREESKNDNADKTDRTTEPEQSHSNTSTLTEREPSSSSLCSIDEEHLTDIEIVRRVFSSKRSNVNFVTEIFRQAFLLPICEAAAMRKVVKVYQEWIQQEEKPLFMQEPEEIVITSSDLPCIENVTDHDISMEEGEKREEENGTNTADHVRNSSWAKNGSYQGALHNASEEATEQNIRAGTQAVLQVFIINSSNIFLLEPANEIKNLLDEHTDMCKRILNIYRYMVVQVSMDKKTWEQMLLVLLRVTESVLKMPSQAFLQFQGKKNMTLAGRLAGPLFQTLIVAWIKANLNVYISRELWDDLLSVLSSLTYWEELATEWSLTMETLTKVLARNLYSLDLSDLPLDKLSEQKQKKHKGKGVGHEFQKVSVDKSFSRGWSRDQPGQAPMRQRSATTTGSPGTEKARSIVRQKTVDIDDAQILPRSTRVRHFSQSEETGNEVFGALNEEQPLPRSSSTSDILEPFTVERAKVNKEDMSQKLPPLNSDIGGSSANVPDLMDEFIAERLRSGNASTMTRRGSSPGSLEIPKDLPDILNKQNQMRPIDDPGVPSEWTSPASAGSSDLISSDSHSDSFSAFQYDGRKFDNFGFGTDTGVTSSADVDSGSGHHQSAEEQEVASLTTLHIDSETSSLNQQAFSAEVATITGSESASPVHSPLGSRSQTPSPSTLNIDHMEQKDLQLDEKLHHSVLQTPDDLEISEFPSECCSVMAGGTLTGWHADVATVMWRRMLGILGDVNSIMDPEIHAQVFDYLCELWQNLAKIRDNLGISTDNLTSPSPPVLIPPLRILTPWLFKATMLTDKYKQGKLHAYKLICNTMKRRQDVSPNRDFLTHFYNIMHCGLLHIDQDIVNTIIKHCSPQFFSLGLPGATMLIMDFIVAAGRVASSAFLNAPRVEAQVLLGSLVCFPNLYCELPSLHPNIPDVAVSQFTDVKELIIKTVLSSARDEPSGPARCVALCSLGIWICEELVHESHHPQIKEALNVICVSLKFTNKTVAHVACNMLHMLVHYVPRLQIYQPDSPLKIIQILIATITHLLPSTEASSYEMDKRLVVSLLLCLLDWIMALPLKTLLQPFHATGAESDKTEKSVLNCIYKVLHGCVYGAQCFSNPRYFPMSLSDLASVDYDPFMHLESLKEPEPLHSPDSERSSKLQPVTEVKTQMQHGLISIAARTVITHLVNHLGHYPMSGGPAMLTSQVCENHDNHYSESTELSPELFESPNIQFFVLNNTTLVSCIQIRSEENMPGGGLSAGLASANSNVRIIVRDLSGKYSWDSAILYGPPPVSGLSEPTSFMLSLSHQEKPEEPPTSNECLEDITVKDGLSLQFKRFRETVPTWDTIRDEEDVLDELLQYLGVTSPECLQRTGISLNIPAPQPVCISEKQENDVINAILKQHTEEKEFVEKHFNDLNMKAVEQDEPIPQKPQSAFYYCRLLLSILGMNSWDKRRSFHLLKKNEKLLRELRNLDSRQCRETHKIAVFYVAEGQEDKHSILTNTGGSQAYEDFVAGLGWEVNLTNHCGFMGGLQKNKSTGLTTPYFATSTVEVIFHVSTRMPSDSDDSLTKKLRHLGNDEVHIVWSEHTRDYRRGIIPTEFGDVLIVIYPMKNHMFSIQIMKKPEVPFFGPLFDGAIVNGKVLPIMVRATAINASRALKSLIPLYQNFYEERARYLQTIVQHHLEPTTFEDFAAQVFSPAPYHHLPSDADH", "conditions": "protein RALGAPA1; U3A, 10 μM, 2 h"}, "[15]": {"target": "proteins of U3A human fibrosarcoma cells (4462 proteins detected) (Homo sapiens, UniProt Q6YN16)", "conditions": "protein HSDL2; U3A cells"}, "[16]": {"target": "proteins of U3A human fibrosarcoma cells (4462 proteins detected) (Homo sapiens, UniProt Q7L5Y9)", "sequence (Q7L5Y9 whole entry)": "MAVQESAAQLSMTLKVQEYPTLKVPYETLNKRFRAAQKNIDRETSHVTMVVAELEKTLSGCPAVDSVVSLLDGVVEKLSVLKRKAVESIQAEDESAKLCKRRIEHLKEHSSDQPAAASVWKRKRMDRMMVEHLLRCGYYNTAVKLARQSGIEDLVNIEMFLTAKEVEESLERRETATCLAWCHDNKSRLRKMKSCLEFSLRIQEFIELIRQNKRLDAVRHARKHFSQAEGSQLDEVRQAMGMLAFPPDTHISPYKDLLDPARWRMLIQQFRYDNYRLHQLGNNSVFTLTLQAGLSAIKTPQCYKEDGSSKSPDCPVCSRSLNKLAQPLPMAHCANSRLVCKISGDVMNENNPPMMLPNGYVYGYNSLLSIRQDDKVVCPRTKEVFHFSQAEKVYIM", "conditions": "protein MAEA; U3A cells"}, "[17]": {"target": "proteins of U3A human fibrosarcoma cells (4462 proteins detected) (Homo sapiens, UniProt Q7Z3E5)", "conditions": "protein ARMC9; U3A, 10 μM, 2 h"}, "[18]": {"target": "proteins of U3A human fibrosarcoma cells (4462 proteins detected) (Homo sapiens, UniProt Q8IVL0)", "conditions": "protein NAV3, U3A cells"}, "[19]": {"target": "proteins of U3A human fibrosarcoma cells (4462 proteins detected) (Homo sapiens, UniProt Q8IXJ6)", "sequence (Q8IXJ6 whole entry)": "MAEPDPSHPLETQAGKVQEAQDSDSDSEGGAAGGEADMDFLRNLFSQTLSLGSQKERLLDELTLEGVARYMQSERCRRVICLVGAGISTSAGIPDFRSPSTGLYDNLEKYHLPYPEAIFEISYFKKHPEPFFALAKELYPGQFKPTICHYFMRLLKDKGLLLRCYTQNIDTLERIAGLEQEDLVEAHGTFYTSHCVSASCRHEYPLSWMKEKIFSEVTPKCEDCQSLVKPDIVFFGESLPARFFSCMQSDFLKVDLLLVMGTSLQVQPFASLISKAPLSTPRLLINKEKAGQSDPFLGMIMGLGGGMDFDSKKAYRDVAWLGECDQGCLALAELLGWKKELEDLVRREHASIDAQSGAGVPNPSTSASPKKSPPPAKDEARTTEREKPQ", "conditions": "protein SIRT2; U3A cells"}, "[20]": {"target": "proteins of U3A human fibrosarcoma cells (4462 proteins detected) (Homo sapiens, UniProt Q8IYB5)", "sequence (Q8IYB5 whole entry)": "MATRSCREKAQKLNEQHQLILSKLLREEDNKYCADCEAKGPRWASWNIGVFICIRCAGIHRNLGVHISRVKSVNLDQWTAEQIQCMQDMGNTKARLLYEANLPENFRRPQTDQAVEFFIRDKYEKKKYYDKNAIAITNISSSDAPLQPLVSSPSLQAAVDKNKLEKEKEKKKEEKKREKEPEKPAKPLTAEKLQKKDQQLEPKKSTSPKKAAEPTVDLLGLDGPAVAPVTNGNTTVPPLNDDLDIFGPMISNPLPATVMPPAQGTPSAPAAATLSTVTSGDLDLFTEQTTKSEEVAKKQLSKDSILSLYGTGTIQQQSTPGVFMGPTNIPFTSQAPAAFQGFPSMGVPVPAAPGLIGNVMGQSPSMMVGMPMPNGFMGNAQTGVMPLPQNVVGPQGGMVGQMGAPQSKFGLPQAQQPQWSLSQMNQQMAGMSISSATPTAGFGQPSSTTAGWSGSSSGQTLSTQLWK", "conditions": "protein SMAP1; soluble abundance after heat, U3A cells"}, "[21]": {"target": "proteins of U3A human fibrosarcoma cells (4462 proteins detected) (Homo sapiens, UniProt Q8NFF5)", "conditions": "protein FLAD1; U3A cells"}, "[22]": {"target": "proteins of U3A human fibrosarcoma cells (4462 proteins detected) (Homo sapiens, UniProt Q8NFI3)", "conditions": "protein ENGASE; soluble abundance after heat, U3A cells"}, "[23]": {"target": "proteins of U3A human fibrosarcoma cells (4462 proteins detected) (Homo sapiens, UniProt Q99832)", "conditions": "protein CCT7; U3A cells"}, "[24]": {"target": "proteins of U3A human fibrosarcoma cells (4462 proteins detected) (Homo sapiens, UniProt Q9NP77)", "conditions": "protein SSU72, U3A cells"}, "[25]": {"target": "proteins of U3A human fibrosarcoma cells (4462 proteins detected) (Homo sapiens, UniProt Q9NRL3)", "conditions": "protein STRN4; U3A cells"}, "[26]": {"target": "proteins of U3A human fibrosarcoma cells (4462 proteins detected) (Homo sapiens, UniProt Q9NVA2)", "conditions": "protein SEPT11, U3A cells"}, "[27]": {"target": "proteins of U3A human fibrosarcoma cells (4462 proteins detected) (Homo sapiens, UniProt Q9NVR0)", "conditions": "protein KLHL11; U3A cells"}, "[28]": {"target": "proteins of U3A human fibrosarcoma cells (4462 proteins detected) (Homo sapiens, UniProt Q9UJX6)", "conditions": "protein ANAPC2; soluble abundance after heat, U3A cells"}, "[29]": {"target": "proteins of U3A human fibrosarcoma cells (4462 proteins detected) (Homo sapiens, UniProt Q9Y3T9)", "conditions": "protein NOC2L; soluble abundance after heat, U3A cells"}, "[30]": {"target": "proteins of U3A human fibrosarcoma cells (4462 proteins detected) (Homo sapiens, UniProt Q9Y5J1)", "conditions": "protein UTP18; U3A cells"}},
  "data": [
    {"smiles": "CCc1nc(N)nc(N)c1-c1ccc(Cl)cc1", "note": "[pyrimethamine]", "values": [
      {"measurement": "Log2 (PYR/DMSO)", "setting": "[1]", "value": 0.14},
      {"measurement": "Log2 (PYR/DMSO)", "setting": "[2]", "value": 0.16},
      {"measurement": "Log2 (PYR/DMSO), PHF14", "setting": "[3]", "value": -0.15},
      {"measurement": "Log2 (PYR/DMSO)", "setting": "[4]", "value": 0.13},
      {"measurement": "Log2 (PYR/DMSO), HSPD1", "setting": "[5]", "value": 0.35},
      {"measurement": "Log2 (PYR/DMSO)", "setting": "[6]", "value": 0.18},
      {"measurement": "Log2 (PYR/DMSO), HMGB2", "setting": "[7]", "value": -0.14},
      {"measurement": "Log2 (PYR/DMSO)", "setting": "[8]", "value": 0.20},
      {"measurement": "Log2 (PYR/DMSO)", "setting": "[9]", "value": 0.16},
      {"measurement": "Log2 (PYR/DMSO)", "setting": "[10]", "value": 0.14},
      {"measurement": "Log2 (PYR/DMSO)", "setting": "[11]", "value": 0.18},
      {"measurement": "Log2 (PYR/DMSO)", "setting": "[12]", "value": 0.18},
      {"measurement": "Log2 (PYR/DMSO)", "setting": "[13]", "value": -0.04},
      {"measurement": "Log2 (PYR/DMSO), RALGAPA1", "setting": "[14]", "value": -0.50},
      {"measurement": "Log2 (PYR/DMSO)", "setting": "[15]", "value": 0.22},
      {"measurement": "Log2 (PYR/DMSO)", "setting": "[16]", "value": 0.16},
      {"measurement": "Log2 (PYR/DMSO), ARMC9", "setting": "[17]", "value": -0.15},
      {"measurement": "Log2 (PYR/DMSO)", "setting": "[18]", "value": -0.04},
      {"measurement": "Log2 (PYR/DMSO)", "setting": "[19]", "value": 0.19},
      {"measurement": "Log2 (PYR/DMSO)", "setting": "[20]", "value": 0.15},
      {"measurement": "Log2 (PYR/DMSO)", "setting": "[21]", "value": 0.16},
      {"measurement": "Log2 (PYR/DMSO)", "setting": "[22]", "value": 0.15},
      {"measurement": "Log2 (PYR/DMSO)", "setting": "[23]", "value": 0.18},
      {"measurement": "Log2 (PYR/DMSO)", "setting": "[24]", "value": -0.04},
      {"measurement": "Log2 (PYR/DMSO)", "setting": "[25]", "value": 0.16},
      {"measurement": "Log2 (PYR/DMSO)", "setting": "[26]", "value": -0.04},
      {"measurement": "Log2 (PYR/DMSO)", "setting": "[27]", "value": 0.18},
      {"measurement": "Log2 (PYR/DMSO)", "setting": "[28]", "value": 0.14},
      {"measurement": "Log2 (PYR/DMSO)", "setting": "[29]", "value": 0.14},
      {"measurement": "Log2 (PYR/DMSO)", "setting": "[30]", "value": 0.21}
    ]}
  ]
}
